Measured values: patent US7635722B1, “Chemical induced intracellular hyperthermia” (priority 1998, dated 2009)

Legend:
[1] = tested on: Kaposi's sarcoma and nontumorous oral mucosa tissues; assay: microcalorimetric heat output of biopsy specimens; parameters: species or system human; settings: biopsy specimens in 30 uM DNP
Text: Laboratory studies: EKG, serum electrolytes, renal and liver function tests were normal. Hematocrit was 35.5%, WBC was 9,900 with 81% neutrophils, 4 bands, 11 lymphocytes and 4 monocytes. Platelets were 314,000/mm^3. Viral load was 400,000 copies/ml (Amplicor HIV Monitor test, Roche). A CD4^+ T cell count was quantified by flow cytometry at 250/mm^3. They were antibody positive for hepatitis C. […] Karnofsky score was greater than 70. Normal and tumor tissue biopsies, 3 to 6 mm in diameter, from the oral cavity and anus were obtained. The tissues were equally divided, weighed and placed in 4° C. Ringers lactate solution. Histologically confirmed normal and KS tissues were then subjected to microcalorimetric measurements in a thermal activity monitor (ThermoMetric, Jarfalla, Sweden). Recorded heat output (μW/min) was 8.2-8.5 times greater for the KS sarcoma lesions than nontumorous oral mucosa tissues. Repeat measurements with biopsies specimens in 30 uM DNP increased heat production in tumorous tissues 20.5 times more than nontumorous specimens.

[2] = tested on: chronically HIV infected HUT-78 cells; assay: in vitro inactivation of chronically HIV infected cells; format: cell-based; settings: varying concentrations of DNP (FIG. 16)
Text: Clinical assessment and treatment evaluation: HIV and HIV-infected T cells are known to be more sensitive to killing by heat than uninfected lymphocytes. Susceptibility to heat killing is enhanced with increased oxygen free radical production. Acute and chronically infected cells have decreased levels of manganous superoxide dismutase (MnSOD) activity. MnSOD is located exclusively in mitochondria. Mathematical modeling of human HIV production and CD4+ T cell turnover predicts that reducing both free virus and actively infected cells by a minimum of 40% with 1 hour of 42° C. therapeutic hyperthermia every third day will promote recovery of the uninfected T-cell population. Human HIV studies with extracorporeal hyperthermia of 41-42° C. have reported isolated cases of extended patient survival, elimination of detectable virus, and improvement of Kaposi's sarcoma lesions. DNP is known to generate intracellular hyperthermia and oxygen free radicals from the level of the inner mitochondrial membrane. Studies on in vitro inactivation of chronically HIV infected HUT-78 cells by various concentrations of DNP are graphically represented in FIG. 16.

Kaposi's sarcoma = assay: DNP hyperthermia, Kaposi's sarcoma lesions (Example 2); format: in vivo, human
Procedure: Pretreatment protocol: all medications were stopped 2 weeks prior to treatment. The patient refused taking diazepam, placement of a Foley catheter and oxygen face mask. They dressed themself into a dry cold water immersion suit (Stearns, ISS-590I, Universal Adult) designed to prevent heat loss and modified for easy placement of physiologic monitors. Equipment for measurement of heart rate, temperature, carbon dioxide production and Kcal of heat produced were conducted as outlined in Example 1. An oral breathing tube was used to measure V02 from room air. Urine output was measured when the patient voluntarily urinated through a “Texas” catheter (superficial condom tightly fitted around the head of the penis with tubing connected to urine collection bag). The patient was informed that hyperthermia would be administered as tolerated by their stamina and monitored clinical parameters, not to exceed 5 hours, on a daily or every other day basis, for a total of 5 sessions.
Treatment procedure: Baseline reading for 5 minutes established an average V02 of 300 cc/min. An initial dose of 2 mg/kg of DNP was administered over a 2 minute period. V02 increased and stabilized at 15 minutes at 340-380 cc/min. An additional 2 mg/kg DNP infusion was given, the V02 increased and stabilized at 610-630 cc/min. […]

[3] = tested on: dimethyl benzo-dithionaphthene derived ascites fibrosarcoma; assay: DNP induced hyperthermia with thermosensitive liposomes, ascites fibrosarcoma (Example 5); format: in vivo, Swiss albino mice
Procedure: The anticancer drug dacarbazine [5-(3,3′-dimethyl-1-triazino) imidazole-4-carboxamide] was encapsulated in these heat-sensitive liposomes at a concentration of 3 mg/ml. The in vivo efficacy of the thermosensitive, liposome encapsulated dacarbazine was tested on Swiss albino mice transplanted with a dimethyl benzo-dithionaphthene derived ascites fibrosarcoma subjected to DNP induced hyperthermia.
Male, 10-12-week-old, Swiss albino mice were injected with 3×10^6 viable fibrosarcoma cells into the peritoneum. After 15 days the animals were divided into various treatment and control groups receiving intraperitoneal injections of free dacarbazine, DNP alone, DNP+empty liposomes and DNP+liposome encapsulated dacarbazine. DNP induced hyperthermia was recorded with neonatal rectal and 22 ga. hypodermic YSI probes. Temperatures were recorded 30 minutes after a 20 mg/kg intraperitoneal dose of DNP. DNP was administered every day for a total of 5 doses. In all cases the hypodermic, intraperitoneal temperatures were 1° C. higher than the rectal.

hepatic ischemic injury = hepatic ischemic injury by Pringle's maneuver after DNP pretreatment; format: in vivo; settings: Pringle's maneuver (FIG. 22)
Text: This method of DNP induced preconditioning could be used to decrease intimal thickening and restenosis after angioplasty, improve ischemia/reperfusion injury in organ and tissue transplantation, and improve surgical outcome of procedures that require temporary or prolonged occlusion of arterial blood flow.

[4] = tested on: inner mitochondrial membrane; settings: lowered from −180; cited from earlier work

O=[N+]([O-])c1ccc(O)c([N+](=O)[O-])c1 [DNP, 2,4-dinitrophenol]
heat production in tumorous tissues versus nontumorous specimens [1]: 20.5 times
killing of chronically HIV infected HUT-78 cells [2]: killing of chronically HIV infected HUT-78 cells
anal tumor diminished in size (Kaposi's sarcoma; 5th and last day of therapy): approximately 60%
oral and anal KS lesions (Kaposi's sarcoma; 30 days post-treatment): complete regression of both oral and anal KS lesions
hypodermic, intraperitoneal temperature higher than the rectal ([3]; 30 minutes after 20 mg/kg intraperitoneal DNP): 1 °C
survival curves in comparison to controls ([3]; FIG. 20, DNP 20 mg/kg ip every day, 5 doses): significantly improved
animals remained alive ([3]; sham treated animals all died by 60): ≥ 100 days
effect of DNP pretreatment before hepatic ischemic injury (hepatic ischemic injury): protective effect
inner mitochondrial membrane potential [4]: −145 mV
